# Experimental data taken from patent US20180000085A1, “USE OF PICOLINAMIDE COMPOUNDS WITH FUNGICIDAL ACTIVITY” (DOW AGROSCIENCES LLC, priority 2014, published 2018).
# What was measured:
# Zymoseptoria tritici = assay: Leaf blotch of wheat (SEPTTR) disease control on wheat seedlings; assay type: in vivo; set-up: key to SEPTTR 1DP, HV activity at 100 ppm (% control rating) / SEPTTR 3DC, HV activity at 100 ppm (% control rating) / SEPTTR disease control, 1DP / SEPTTR disease control, 3DC / SEPTTR 1DP disease control rating, HV activity / SEPTTR 3DC disease control rating, HV activity / SEPTTR 3DC, LV activity at 125.1 g/H (% Control rating) / SEPTTR 1DP, LV activity at 125.1 g/H (% Control rating) / SEPTTR 1DP disease control rating, LV activity at 125.1 g/H / SEPTTR 3DC disease control rating, LV activity at 125.1 g/H / SEPTTR 3DC disease control rating, HV activity at 100 ppm / SEPTTR 1DP disease control rating, HV activity at 100 ppm / HV activity at 100 ppm SEPTTR 3DC (disease control rating) / HV activity at 100 ppm SEPTTR 1DP (disease control rating) / LV activity at 125.1 g/H SEPTTR 1DP (disease control rating) / LV activity at 125.1 g/H SEPTTR 3DC (disease control rating): A: > 80; B: ≤ 80; C: Not Tested; D: No Activity Observed in the Reported Assay; details: for SEPTTR 1DP disease control rating, HV activity / SEPTTR 3DC disease control rating, HV activity: HV application at 100 ppm
# Puccinia triticina = assay: Wheat brown rust (PUCCRT) disease control on wheat seedlings; assay type: in vivo; set-up: key to PUCCRT 3DC, HV activity at 100 ppm (% control rating) / PUCCRT disease control, 3DC / PUCCRT 1DP disease control rating, HV activity / PUCCRT 3DC disease control rating, HV activity / PUCCRT 3DC, LV activity at 125.1 g/H (% Control rating) / PUCCRT 1DP, LV activity at 125.1 g/H (% Control rating) / PUCCRT 3DC disease control rating, LV activity at 125.1 g/H / PUCCRT 1DP disease control rating, LV activity at 125.1 g/H / PUCCRT 3DC disease control rating, HV activity at 100 ppm / PUCCRT 1DP disease control rating, HV activity at 100 ppm / HV activity at 100 ppm PUCCRT 3DC (disease control rating) / LV activity at 125.1 g/H PUCCRT 1DP (disease control rating) / LV activity at 125.1 g/H PUCCRT 3DC (disease control rating): A: > 80; B: ≤ 80; C: Not Tested; D: No Activity Observed in the Reported Assay; details: for PUCCRT 1DP disease control rating, HV activity / PUCCRT 3DC disease control rating, HV activity: HV application at 100 ppm
# [1] = high volume application, 100 ppm, 1 day protectant
# [2] = high volume application, 100 ppm, 3 day curative
# [3] = 1 Day Protectant, wheat leaf blotch
# [4] = 3 Day Curative, wheat leaf blotch
# [5] = 1 Day Protectant, wheat brown rust
# [6] = 3 Day Curative, wheat brown rust
# [7] = low volume application, 125.1 g/H, 1 Day Protectant
# [8] = low volume application, 125.1 g/H, 3 Day Curative
# [9] = low volume application, 125.1 g/H, 1 day protectant
# [10] = low volume application, 125.1 g/H, 3 day curative
smiles,measurement,setting,value
C=CC[C@@H](Oc1ccc(C(F)(F)F)cc1)[C@H](C)OC(=O)[C@H](C)NC(=O)c1nccc(OC)c1O [Cmpd 1020],"SEPTTR 1DP disease control rating, HV activity at 100 ppm",Zymoseptoria tritici; [1],B (≤ 80)
same,"SEPTTR 3DC disease control rating, HV activity at 100 ppm",Zymoseptoria tritici; [2],B (≤ 80)
same,"PUCCRT 1DP disease control rating, HV activity at 100 ppm",Puccinia triticina; [1],A (> 80)
same,"PUCCRT 3DC disease control rating, HV activity at 100 ppm",Puccinia triticina; [2],A (> 80)
COc1ccnc(C(=O)NC(C)C(=O)OC(C)C(Oc2cc(F)ccc2F)C(C)C)c1O (stereo not drawn) [Cmpd 392],"SEPTTR 1DP disease control rating, HV activity",Zymoseptoria tritici; [3],A (> 80)
same,"SEPTTR 3DC disease control rating, HV activity",Zymoseptoria tritici; [4],A (> 80)
same,"PUCCRT 1DP disease control rating, HV activity",Puccinia triticina; [5],A (> 80)
same,"PUCCRT 3DC disease control rating, HV activity",Puccinia triticina; [6],A (> 80)
COc1ccnc(C(=O)NC(C)C(=O)OC(C)C(Oc2cccc(-c3ccccc3)c2)C(C)C)c1O (stereo not drawn) [Cmpd 389],"SEPTTR 1DP disease control rating, HV activity",Zymoseptoria tritici; [3],B (≤ 80)
same,"SEPTTR 3DC disease control rating, HV activity",Zymoseptoria tritici; [4],B (≤ 80)
same,"PUCCRT 1DP disease control rating, HV activity",Puccinia triticina; [5],A (> 80)
same,"PUCCRT 3DC disease control rating, HV activity",Puccinia triticina; [6],D
COCCC(=O)Oc1c(OC)ccnc1C(=O)NC(C)C(=O)OC(C)C(CC(C)C)Oc1ccccc1 (stereo not drawn) [Cmpd 1100],LV activity at 125.1 g/H SEPTTR 1DP (disease control rating),"Zymoseptoria tritici; low volume application, 125.1 g/H, 1 Day Protectant, wheat leaf blotch",A (> 80)
same,LV activity at 125.1 g/H SEPTTR 3DC (disease control rating),"Zymoseptoria tritici; low volume application, 125.1 g/H, 3 Day Curative, wheat leaf blotch",A (> 80)
same,LV activity at 125.1 g/H PUCCRT 1DP (disease control rating),"Puccinia triticina; low volume application, 125.1 g/H, 1 Day Protectant, wheat brown rust",A (> 80)
same,LV activity at 125.1 g/H PUCCRT 3DC (disease control rating),"Puccinia triticina; low volume application, 125.1 g/H, 3 Day Curative, wheat brown rust",A (> 80)
COc1ccnc(C(=O)N[C@@H](C)C(=O)O[C@@H](C)[C@H](OCC2CC2)c2ccccc2)c1O [Cmpd 319],"SEPTTR 1DP disease control rating, HV activity",Zymoseptoria tritici; [3],A (> 80)
same,"SEPTTR 3DC disease control rating, HV activity",Zymoseptoria tritici; [4],A (> 80)
same,"PUCCRT 1DP disease control rating, HV activity",Puccinia triticina; [5],A (> 80)
same,"PUCCRT 3DC disease control rating, HV activity",Puccinia triticina; [6],B (≤ 80)
COc1ccnc(C(=O)N[C@@H](CC(C)C)C(=O)O[C@@H](C)[C@H](Oc2ccc(Cl)cc2Cl)C(C)C)c1OC(C)=O [Cmpd 570],"SEPTTR 1DP, LV activity at 125.1 g/H (% Control rating)",Zymoseptoria tritici; [7],D
same,"SEPTTR 3DC, LV activity at 125.1 g/H (% Control rating)",Zymoseptoria tritici; [8],D
same,"PUCCRT 1DP, LV activity at 125.1 g/H (% Control rating)",Puccinia triticina; [7],D
same,"PUCCRT 3DC, LV activity at 125.1 g/H (% Control rating)",Puccinia triticina; [8],D
COc1ccnc(C(=O)N[C@@H](C)C(=O)O[C@@H](C)[C@H](Oc2ccc(Cl)cc2Cl)C(C)C)c1O [Cmpd 358],"SEPTTR 1DP disease control rating, HV activity",Zymoseptoria tritici; [3],B (≤ 80)
same,"SEPTTR 3DC disease control rating, HV activity",Zymoseptoria tritici; [4],B (≤ 80)
same,"PUCCRT 1DP disease control rating, HV activity",Puccinia triticina; [5],B (≤ 80)
same,"PUCCRT 3DC disease control rating, HV activity",Puccinia triticina; [6],B (≤ 80)
CCOc1ccnc(C(=O)N[C@@H](C)C(=O)O[C@@H](C)[C@@H](CC(C)C)Oc2cc(F)ccc2F)c1O [Cmpd 1040],HV activity at 100 ppm SEPTTR 1DP (disease control rating),"Zymoseptoria tritici; HV application, 100 ppm, 1 Day Protectant, wheat leaf blotch",D
same,HV activity at 100 ppm SEPTTR 3DC (disease control rating),"Zymoseptoria tritici; HV application, 100 ppm, 3 Day Curative, wheat leaf blotch",D
same,HV activity at 100 ppm PUCCRT 1DP (disease control rating),"Puccinia triticina; HV application, 100 ppm, 1 Day Protectant, wheat brown rust",B (≤ 80)
same,HV activity at 100 ppm PUCCRT 3DC (disease control rating),"Puccinia triticina; HV application, 100 ppm, 3 Day Curative, wheat brown rust",A (> 80)
"CCCO[C@@H]([C@H](C)OC(=O)[C@H](C)NC(=O)c1nccc(OC)c1O)[C@H](CC)Oc1ccccc1 [Cmpd 326, (S)-(2S,3S,4S)-4-phenoxy-3-propoxyhexan-2-yl-2-(3-hydroxy-4-methoxypicolinamido)propanoate]","SEPTTR 1DP disease control rating, HV activity",Zymoseptoria tritici; [3],D
same,"SEPTTR 3DC disease control rating, HV activity",Zymoseptoria tritici; [4],D
same,"PUCCRT 1DP disease control rating, HV activity",Puccinia triticina; [5],A (> 80)
same,"PUCCRT 3DC disease control rating, HV activity",Puccinia triticina; [6],A (> 80)
COc1ccnc(C(=O)NC(C)C(=O)OC(C)COCC(C)C)c1OCOC(C)=O (stereo not drawn) [Cmpd 533],"SEPTTR 1DP, LV activity at 125.1 g/H (% Control rating)",Zymoseptoria tritici; [7],D
same,"SEPTTR 3DC, LV activity at 125.1 g/H (% Control rating)",Zymoseptoria tritici; [8],A (> 80)
same,"PUCCRT 1DP, LV activity at 125.1 g/H (% Control rating)",Puccinia triticina; [7],D
same,"PUCCRT 3DC, LV activity at 125.1 g/H (% Control rating)",Puccinia triticina; [8],A (> 80)
COc1ccnc(C(=O)NC(C)C(=O)OC(C)C(Oc2ccc(Cl)cc2Cl)c2ccccc2)c1OCOC(C)=O (stereo not drawn) [Cmpd 869],"SEPTTR 1DP disease control rating, LV activity at 125.1 g/H",Zymoseptoria tritici; [9],A (> 80)
same,"SEPTTR 3DC disease control rating, LV activity at 125.1 g/H",Zymoseptoria tritici; [10],A (> 80)
same,"PUCCRT 1DP disease control rating, LV activity at 125.1 g/H",Puccinia triticina; [9],A (> 80)
same,"PUCCRT 3DC disease control rating, LV activity at 125.1 g/H",Puccinia triticina; [10],B (≤ 80)
CC[C@H](CC1CCCC1)[C@@H](OCC1CC1)[C@H](C)OC(=O)[C@H](C)NC(=O)c1nccc(OC)c1OCOC(C)=O [Cmpd 509],"SEPTTR 1DP, LV activity at 125.1 g/H (% Control rating)",Zymoseptoria tritici; [7],B (≤ 80)
same,"SEPTTR 3DC, LV activity at 125.1 g/H (% Control rating)",Zymoseptoria tritici; [8],D
same,"PUCCRT 1DP, LV activity at 125.1 g/H (% Control rating)",Puccinia triticina; [7],B (≤ 80)
same,"PUCCRT 3DC, LV activity at 125.1 g/H (% Control rating)",Puccinia triticina; [8],B (≤ 80)
